Tested on: maize tissue pools (tassel, ear, leaf, root, stem)
Assay: siRNA profiling microarray assay of mts-siRNA sequences across maize tissues
Settings: for 01DKD2 V8-V9 Tassel relative signal value: germplasm 01DKD2, V8-V9 tassel; for 01DKD2 V10-V12 Tassel relative signal value: germplasm 01DKD2, V10-V12 tassel; for 01DKD2 Other Tissue relative signal value: germplasm 01DKD2, combined signals from other tissue; for LH244 V8-V9 Tassel relative signal value: germplasm LH244, V8-V9 tassel; for LH244 V10-V12 Tassel relative signal value: germplasm LH244, V10-V12 tassel; for LH244 Other Tissue relative signal value: germplasm LH244, combined signals from other tissue
Experimental: A siRNA profiling microarray assay was performed using μParaflo® Microfluidics chips provided by LC Sciences LLC (Houston, Tex., USA) with 1,200 sequences selected from the thousands of mts-siRNA sequences identified from the differential bioinformatic analysis. The microarray chips contained triplicate probes of the complementary sequence for each of the 1,200 mts-siRNA sequences. Total RNA was purified from 26 maize tissue pools (duplicate or triplicate tissue pools) from either LH244 (ATCC deposit number PTA-1173) or 01DKD2 (I294213) (ATCC deposit number PTA-7859) inbred plants. Each of the 26 RNA samples were hybridized with the microarray chips that contain probes for the 1,200 mts-siRNA. Hybridization images were collected using a GenePix® 4000B laser scanner (Molecular Devices, Sunnyvale, Calif.) and digitized using Array-Pro® Analyzer image analysis software (Media Cybernetics, Rockville, Md.). Relative signal values were derived by background subtraction and normalization. Differentially expressed signals were determined by t-test with p<0.05. From the microarray analysis, about 500 mts-siRNA from the 1,200 were identified as being highly tassel-specific.
Selected mts-siRNA sequences aligning to one of the six cDNA sequences were used for further microarray analysis to determine differential expression across maize tissues. Microarray analysis for mts-siRNA sequences of normalized signal values for V8-V9 tassel, V10-V12 tassel, or combined signals from the other tissue for maize germplasm LH244 and 01DKD2 is presented in Tables 3-10. […] Signal value results are measured as relative signal values and standard error (p<0.05) is represented by (STDR). […] The mts-siRNA sequence corresponds to the sense or antisense strand of the corresponding mts-siRNA target sequence in the cDNA sequence. The mts-siRNA sequence may have a single nucleotide, a two nucleotide, or a three nucleotide mismatch with the aligned portion of the cDNA sequence, and the mts-siRNA sequence may align to the sense strand or antisense strand of the cDNA sequence. The mts-siRNA sequences provided here are found across different maize germplasms.

Row | Substance | 01DKD2 V8-V9 Tassel relative signal value | 01DKD2 V10-V12 Tassel relative signal value | 01DKD2 Other Tissue relative signal value | LH244 V8-V9 Tassel relative signal value | LH244 V10-V12 Tassel relative signal value | LH244 Other Tissue relative signal value
1 | SEQ ID NO: 74: mts-siRNA sequence aligning to cDNA SEQ ID NO: 22 (AGGCCTCCCTTCCCTATG; expressed or natural sequence) | 43.5 | 171 | 45.8 | 83.5 | 129 | 164.2
2 | SEQ ID NO: 67: mts-siRNA sequence aligning to cDNA SEQ ID NO: 21 (CCTATCTAGTGTATGACCAAT; expressed or natural sequence) | 123.5 | 107 | 4.3 | 216 | 62 | 3.3
3 | SEQ ID NO: 41: mts-siRNA sequence aligning to cDNA SEQ ID NO: 18 (ACCCTTGCGCCTTAACTATCGTGC; expressed or natural sequence) | 5 | 752 | 3 | 185.5 | 702.7 | 0.9
4 | SEQ ID NO: 60: mts-siRNA sequence aligning to cDNA SEQ ID NO: 20 (CGTCGTGCAGCTGGTCACCGGT; expressed or natural sequence) | 75.5 | 303 | 9.3 | 141.5 | 265.7 | 5.8
5 | SEQ ID NO: 30: mts-siRNA sequence aligning to cDNA SEQ ID NO: 17 (CACCATGCACGGTCGTCGT; expressed or natural sequence) | 32 | 282 | 6.5 | 173.5 | 495.7 | 4.2
6 | SEQ ID NO: 42: mts-siRNA sequence aligning to cDNA SEQ ID NO: 18 (ACTACAGTGAGAGTCTAGGAAAGC; expressed or natural sequence) | 6 | 588 | 5.3 | 143.5 | 564.3 | 2.6
7 | SEQ ID NO: 58: mts-siRNA sequence aligning to cDNA SEQ ID NO: 20 (CGAGGTACCAACTAACATCGGT; expressed or natural sequence) | 88.5 | 327 | 2 | 215.5 | 349 | 0.7
8 | SEQ ID NO: 51: mts-siRNA sequence aligning to cDNA SEQ ID NO: 19 (TGCCGAAGTGTGTCGTGACATTGG; expressed or natural sequence) | 24.5 | 275.5 | 40 | 158 | 287 | 34.3
9 | SEQ ID NO: 61: mts-siRNA sequence aligning to cDNA SEQ ID NO: 21 (CTGTGATGTAGAAGCCCAGAC; expressed or natural sequence) | 461 | 454 | 8 | 850.5 | 334.7 | 9.4
10 | SEQ ID NO: 54: mts-siRNA sequence aligning to cDNA SEQ ID NO: 20 (CATCGTCGTGCAGCTGGT; expressed or natural sequence) | 56 | 231 | 19.5 | 100.5 | 172 | 14.2
11 | SEQ ID NO: 32: mts-siRNA sequence aligning to cDNA SEQ ID NO: 18 (TAGCCACACGGTCACGTTTGGAC; expressed or natural sequence) | 7.5 | 516 | 2.8 | 376.5 | 118 | 2
12 | SEQ ID NO: 29: mts-siRNA sequence aligning to cDNA SEQ ID NO: 17 (CCGTGCATGGTGATGAATCC; expressed or natural sequence) | 86 | 535.5 | 4 | 292.5 | 886.7 | 2.2
13 | SEQ ID NO: 64: mts-siRNA sequence aligning to cDNA SEQ ID NO: 21 (GCATATATGTGATGAAGACCG; expressed or natural sequence) | 13.5 | 9 | 1.3 | 23 | 13.7 | 1.8
14 | SEQ ID NO: 26: mts-siRNA sequence aligning to cDNA SEQ ID NO: 17 (CGCATGTCACATCGCCGTCCTC; expressed or natural sequence) | 10 | 104 | 3.8 | 55.5 | 175.7 | 3.8
15 | SEQ ID NO: 87: mts-siRNA sequence aligning to cDNA SEQ ID NO: 22 (ACCAAGGATGTCGTCACCACCAAT; expressed or natural sequence) | 25 | 91.5 | 2.5 | 56 | 104 | 4.7
16 | SEQ ID NO: 76: mts-siRNA sequence aligning to cDNA SEQ ID NO: 22 (ACAGTGACTCACCAGTGCATG; expressed or natural sequence) | 2.5 | 276.5 | 4 | 55 | 252.3 | 5.7
17 | SEQ ID NO: 80: mts-siRNA sequence aligning to cDNA SEQ ID NO: 22 (CATCAACGACTACAACGGTGAA; expressed or natural sequence) | 2.5 | 230 | 0.5 | 138 | 383.3 | 0.7
18 | SEQ ID NO: 53: mts-siRNA sequence aligning to cDNA SEQ ID NO: 20 (CCATGTAATACACAGTGTCGTC; expressed or natural sequence) | 16 | 84 | 1.5 | 76.5 | 145 | 2.2
19 | SEQ ID NO: 50: mts-siRNA sequence aligning to cDNA SEQ ID NO: 19 (CTGATATCTATGCTAATTCAGG; expressed or natural sequence) | 5.5 | 326 | 1.8 | 296 | 722 | 0
20 | SEQ ID NO: 86: mts-siRNA sequence aligning to cDNA SEQ ID NO: 22 (CAAGGCAAGAAGGTGCTTGTTGTC; expressed or natural sequence) | 3 | 256.5 | 3 | 173.5 | 241.7 | 2.4

From patent publication US20170029841A1, “METHODS AND COMPOSITIONS FOR SELECTIVE REGULATION OF PROTEIN EXPRESSION” (priority 2015, published 2017)
